Source: ChEMBL document CHEMBL1131542, “A potent dipeptide inhibitor of dipeptidyl peptidase IV” (Bioorg Med Chem Lett, 1998)
Square brackets hold non-standard residues; d marks the D form. Peptide text beside a SMILES is read from it. Tic = O=C(O)[C@@H]1Cc2ccccc2CN1

What follows are molecules tested against T1, Dipeptidyl peptidase 4 (Homo sapiens, UniProt P27487) (assay: Percent inhibition of Dipeptidyl peptidase IV (DPP IV) at a concentration of 10 uM).
T1 sequence (P27487 whole entry, looked up): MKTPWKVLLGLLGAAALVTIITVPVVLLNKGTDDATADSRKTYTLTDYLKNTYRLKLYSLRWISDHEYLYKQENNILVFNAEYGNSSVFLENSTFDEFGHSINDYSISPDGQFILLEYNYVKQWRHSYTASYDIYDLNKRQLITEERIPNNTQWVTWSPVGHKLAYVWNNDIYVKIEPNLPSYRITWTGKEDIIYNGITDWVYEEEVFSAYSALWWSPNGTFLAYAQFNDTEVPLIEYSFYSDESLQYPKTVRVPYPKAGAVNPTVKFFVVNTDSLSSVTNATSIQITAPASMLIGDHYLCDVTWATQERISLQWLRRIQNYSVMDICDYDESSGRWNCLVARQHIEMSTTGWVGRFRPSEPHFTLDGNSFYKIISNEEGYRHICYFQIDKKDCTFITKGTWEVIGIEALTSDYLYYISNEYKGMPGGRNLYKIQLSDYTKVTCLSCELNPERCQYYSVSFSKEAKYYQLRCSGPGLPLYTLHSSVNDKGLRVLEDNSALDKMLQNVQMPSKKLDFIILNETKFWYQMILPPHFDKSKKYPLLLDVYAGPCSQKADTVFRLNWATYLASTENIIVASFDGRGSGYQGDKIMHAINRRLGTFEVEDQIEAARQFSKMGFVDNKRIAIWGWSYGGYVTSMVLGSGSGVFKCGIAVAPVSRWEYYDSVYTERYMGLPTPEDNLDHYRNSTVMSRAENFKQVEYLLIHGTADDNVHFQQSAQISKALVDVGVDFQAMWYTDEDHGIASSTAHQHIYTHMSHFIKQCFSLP

Row | SMILES | inhibition [%]
1 | C[C@H](O)[C@H](NC(=O)[C@@H]1Cc2ccccc2CN1C(=O)[C@@H](N)Cc1c[nH]c2ccccc12)C(=O)O | 37
2 | C[C@H](NC(=O)[C@@H]1Cc2ccccc2CN1C(=O)[C@@H](N)Cc1c[nH]c2ccccc12)C(=O)O (H-Trp-[Tic]-Ala-OH) | 43
3 | N[C@@H](Cc1c[nH]c2ccccc12)C(=O)N[C@@H](CCC(=O)O)C(=O)O (H-Trp-Glu-OH) | 3
4 | N[C@@H](Cc1c[nH]c2ccccc12)C(=O)N[C@@H](Cc1ccccc1)C(=O)O (H-Trp-Phe-OH) | 0
5 | N[C@@H](Cc1c[nH]c2ccccc12)C(=O)N1Cc2ccccc2C[C@H]1C(=O)NCC(=O)O (H-Trp-[Tic]-Gly-OH) | 34
6 | N[C@@H](Cc1c[nH]c2ccccc12)C(=O)N1Cc2ccccc2C[C@H]1C(=O)N[C@@H](CC(=O)O)C(=O)O (H-Trp-[Tic]-Asp-OH) | 38
7 | NC(N)=NCCC[C@H](NC(=O)[C@@H]1Cc2ccccc2CN1C(=O)[C@@H](N)Cc1c[nH]c2ccccc12)C(=O)O (H-Trp-[Tic]-Arg-OH) | 38
8 | CC[C@@H](C)[C@H](NC(=O)[C@@H]1Cc2ccccc2CN1C(=O)[C@@H](N)Cc1c[nH]c2ccccc12)C(=O)O | 32
9 | CSCC[C@H](NC(=O)[C@@H]1Cc2ccccc2CN1C(=O)[C@@H](N)Cc1c[nH]c2ccccc12)C(=O)O (H-Trp-[Tic]-Met-OH) | 43
10 | CC(C)[C@H](NC(=O)[C@@H](N)Cc1c[nH]c2ccccc12)C(=O)O (H-Trp-Val-OH) | 4
11 | N[C@@H](Cc1c[nH]c2ccccc12)C(=O)N1Cc2ccccc2C[C@H]1C(=O)N[C@@H](Cc1c[nH]c2ccccc12)C(=O)O (H-Trp-[Tic]-Trp-OH) | 37
12 | CC(C)C[C@H](NC(=O)[C@@H]1Cc2ccccc2CN1C(=O)[C@@H](N)Cc1c[nH]c2ccccc12)C(=O)O (H-Trp-[Tic]-Leu-OH) | 25
13 | N[C@@H](Cc1c[nH]c2ccccc12)C(=O)N1CCC[C@H]1C(=O)O (H-Trp-Pro-OH) | 15
14 | N[C@@H](Cc1c[nH]c2ccccc12)C(=O)N1Cc2ccccc2C[C@H]1C(=O)N[C@@H](CS)C(=O)O (H-Trp-[Tic]-Cys-OH) | 49
15 | N[C@@H](Cc1c[nH]c2ccccc12)C(=O)N1Cc2ccccc2C[C@H]1C(=O)N[C@@H](Cc1ccccc1)C(=O)O (H-Trp-[Tic]-Phe-OH) | 29

The remaining lines, values ahead:

Row | inhibition [%] | SMILES
16 | 36 | N[C@@H](Cc1c[nH]c2ccccc12)C(=O)N1Cc2ccccc2C[C@H]1C(=O)N[C@@H](Cc1ccc(O)cc1)C(=O)O (H-Trp-[Tic]-Tyr-OH)
17 | 20 | N[C@@H](Cc1c[nH]c2ccccc12)C(=O)N1Cc2ccccc2C[C@H]1C(=O)N1CCC[C@H]1C(=O)O (H-Trp-[Tic]-Pro-OH)
18 | 10 | N[C@@H](Cc1c[nH]c2ccccc12)C(=O)N[C@@H](Cc1ccc(O)cc1)C(=O)O (H-Trp-Tyr-OH)
19 | 19 | CC(C)[C@H](NC(=O)[C@@H]1Cc2ccccc2CN1C(=O)[C@@H](N)Cc1c[nH]c2ccccc12)C(=O)O (H-Trp-[Tic]-Val-OH)
20 | 49 | NC(=O)CC[C@H](NC(=O)[C@@H]1Cc2ccccc2CN1C(=O)[C@@H](N)Cc1c[nH]c2ccccc12)C(=O)O (H-Trp-[Tic]-Gln-OH)
21 | 35 | N[C@@H](Cc1c[nH]c2ccccc12)C(=O)N1Cc2ccccc2C[C@H]1C(=O)N[C@@H](Cc1c[nH]cn1)C(=O)O (H-Trp-[Tic]-His-OH)
22 | 2 | N[C@@H](Cc1c[nH]c2ccccc12)C(=O)N[C@@H](Cc1c[nH]c2ccccc12)C(=O)O (H-Trp-Trp-OH)
23 | 46 | NC(=O)C[C@H](NC(=O)[C@@H]1Cc2ccccc2CN1C(=O)[C@@H](N)Cc1c[nH]c2ccccc12)C(=O)O (H-Trp-[Tic]-Asn-OH)
24 | 27 | NCCCC[C@H](NC(=O)[C@@H]1Cc2ccccc2CN1C(=O)[C@@H](N)Cc1c[nH]c2ccccc12)C(=O)O (H-Trp-[Tic]-Lys-OH)

What follows are molecules tested against T1, Dipeptidyl peptidase 4 (assay: Percent inhibition against Dipeptidyl peptidase IV (DPP IV) at a concentration of 1 uM).

Row | SMILES | inhibition [%]
25 | CC[C@H](C)[C@H](NC(=O)[C@H](Cc1c[nH]cn1)NC(=O)CNC(=O)[C@H](CCC(=O)O)NC(=O)[C@H](CCC(N)=O)NC(=O)[C@H](CC(=O)O)NC(=O)[C@H](CC(N)=O)NC(=O)[C@H](CCCN=C(N)N)NC(=O)[C@H](C)NC(=O)[C@@H]1Cc2ccccc2CN1C(=O)[C@@H](N)CCC(=O)O)C(=O)N[C@@H](CC(C)C)C(=O)N[C@@H](CCCCN)C(=O)N[C@@H](CCSC)C(=O)N[C@@H](Cc1ccccc1)C(=O)N1CCC[C@H]1C(=O)N[C@@H](CO)C(=O)N[C@H](C(=O)N[C@@H](Cc1c[nH]c2ccccc12)C(=O)N[C@@H](Cc1ccc(O)cc1)C(=O)N[C@H](C(=O)O)C(C)C)[C@@H](C)O (H-E[Tic]ARNDQEGHILKMFPSTWYV-OH) | 4
26 | CC[C@H](C)[C@H](NC(=O)[C@H](Cc1c[nH]cn1)NC(=O)CNC(=O)[C@H](CCC(=O)O)NC(=O)[C@H](CCC(N)=O)NC(=O)[C@H](CC(=O)O)NC(=O)[C@H](CC(N)=O)NC(=O)[C@H](CCCN=C(N)N)NC(=O)[C@H](C)NC(=O)[C@@H]1Cc2ccccc2CN1C(=O)[C@@H](N)Cc1ccc(O)cc1)C(=O)N[C@@H](CC(C)C)C(=O)N[C@@H](CCCCN)C(=O)N[C@@H](CCSC)C(=O)N[C@@H](Cc1ccccc1)C(=O)N1CCC[C@H]1C(=O)N[C@@H](CO)C(=O)N[C@H](C(=O)N[C@@H](Cc1c[nH]c2ccccc12)C(=O)N[C@@H](Cc1ccc(O)cc1)C(=O)N[C@H](C(=O)O)C(C)C)[C@@H](C)O (H-Y[Tic]ARNDQEGHILKMFPSTWYV-OH) | 12
27 | CC[C@H](C)[C@H](NC(=O)[C@H](Cc1c[nH]cn1)NC(=O)CNC(=O)[C@H](CCC(=O)O)NC(=O)[C@H](CCC(N)=O)NC(=O)[C@H](CC(=O)O)NC(=O)[C@H](CC(N)=O)NC(=O)[C@H](CCCN=C(N)N)NC(=O)[C@H](C)NC(=O)[C@@H]1Cc2ccccc2CN1C(=O)[C@@H](N)Cc1ccccc1)C(=O)N[C@@H](CC(C)C)C(=O)N[C@@H](CCCCN)C(=O)N[C@@H](CCSC)C(=O)N[C@@H](Cc1ccccc1)C(=O)N1CCC[C@H]1C(=O)N[C@@H](CO)C(=O)N[C@H](C(=O)N[C@@H](Cc1c[nH]c2ccccc12)C(=O)N[C@@H](Cc1ccc(O)cc1)C(=O)N[C@H](C(=O)O)C(C)C)[C@@H](C)O (H-F[Tic]ARNDQEGHILKMFPSTWYV-OH) | 4

Now from value to molecule:

Row | inhibition [%] | SMILES
28 | 1 | CC[C@H](C)[C@H](NC(=O)[C@H](Cc1c[nH]cn1)NC(=O)CNC(=O)[C@H](CCC(=O)O)NC(=O)[C@H](CCC(N)=O)NC(=O)[C@H](CC(=O)O)NC(=O)[C@H](CC(N)=O)NC(=O)[C@H](CCCN=C(N)N)NC(=O)[C@H](C)NC(=O)[C@@H]1Cc2ccccc2CN1C(=O)[C@H](C)N)C(=O)N[C@@H](CC(C)C)C(=O)N[C@@H](CCCCN)C(=O)N[C@@H](CCSC)C(=O)N[C@@H](Cc1ccccc1)C(=O)N1CCC[C@H]1C(=O)N[C@@H](CO)C(=O)N[C@H](C(=O)N[C@@H](Cc1c[nH]c2ccccc12)C(=O)N[C@@H](Cc1ccc(O)cc1)C(=O)N[C@H](C(=O)O)C(C)C)[C@@H](C)O (H-A[Tic]ARNDQEGHILKMFPSTWYV-OH)
29 | 2 | CC[C@H](C)[C@H](NC(=O)[C@H](Cc1c[nH]cn1)NC(=O)CNC(=O)[C@H](CCC(=O)O)NC(=O)[C@H](CCC(N)=O)NC(=O)[C@H](CC(=O)O)NC(=O)[C@H](CC(N)=O)NC(=O)[C@H](CCCN=C(N)N)NC(=O)[C@H](C)NC(=O)[C@@H]1Cc2ccccc2CN1C(=O)[C@H]1CCCN1)C(=O)N[C@@H](CC(C)C)C(=O)N[C@@H](CCCCN)C(=O)N[C@@H](CCSC)C(=O)N[C@@H](Cc1ccccc1)C(=O)N1CCC[C@H]1C(=O)N[C@@H](CO)C(=O)N[C@H](C(=O)N[C@@H](Cc1c[nH]c2ccccc12)C(=O)N[C@@H](Cc1ccc(O)cc1)C(=O)N[C@H](C(=O)O)C(C)C)[C@@H](C)O
30 | 0 | CC[C@H](C)[C@H](NC(=O)[C@H](Cc1c[nH]cn1)NC(=O)CNC(=O)[C@H](CCC(=O)O)NC(=O)[C@H](CCC(N)=O)NC(=O)[C@H](CC(=O)O)NC(=O)[C@H](CC(N)=O)NC(=O)[C@H](CCCN=C(N)N)NC(=O)[C@H](C)NC(=O)[C@@H]1Cc2ccccc2CN1C(=O)CN)C(=O)N[C@@H](CC(C)C)C(=O)N[C@@H](CCCCN)C(=O)N[C@@H](CCSC)C(=O)N[C@@H](Cc1ccccc1)C(=O)N1CCC[C@H]1C(=O)N[C@@H](CO)C(=O)N[C@H](C(=O)N[C@@H](Cc1c[nH]c2ccccc12)C(=O)N[C@@H](Cc1ccc(O)cc1)C(=O)N[C@H](C(=O)O)C(C)C)[C@@H](C)O (H-G[Tic]ARNDQEGHILKMFPSTWYV-OH)
31 | 61 | CC[C@H](C)[C@H](NC(=O)[C@H](Cc1c[nH]cn1)NC(=O)CNC(=O)[C@H](CCC(=O)O)NC(=O)[C@H](CCC(N)=O)NC(=O)[C@H](CC(=O)O)NC(=O)[C@H](CC(N)=O)NC(=O)[C@H](CCCN=C(N)N)NC(=O)[C@H](C)NC(=O)[C@@H]1Cc2ccccc2CN1C(=O)[C@@H](N)Cc1c[nH]c2ccccc12)C(=O)N[C@@H](CC(C)C)C(=O)N[C@@H](CCCCN)C(=O)N[C@@H](CCSC)C(=O)N[C@@H](Cc1ccccc1)C(=O)N1CCC[C@H]1C(=O)N[C@@H](CO)C(=O)N[C@H](C(=O)N[C@@H](Cc1c[nH]c2ccccc12)C(=O)N[C@@H](Cc1ccc(O)cc1)C(=O)N[C@H](C(=O)O)C(C)C)[C@@H](C)O (H-W[Tic]ARNDQEGHILKMFPSTWYV-OH)
32 | 10 | CC[C@H](C)[C@H](NC(=O)[C@H](Cc1c[nH]cn1)NC(=O)CNC(=O)[C@H](CCC(=O)O)NC(=O)[C@H](CCC(N)=O)NC(=O)[C@H](CC(=O)O)NC(=O)[C@H](CC(N)=O)NC(=O)[C@H](CCCN=C(N)N)NC(=O)[C@H](C)NC(=O)[C@@H]1Cc2ccccc2CN1C(=O)[C@@H](N)CO)C(=O)N[C@@H](CC(C)C)C(=O)N[C@@H](CCCCN)C(=O)N[C@@H](CCSC)C(=O)N[C@@H](Cc1ccccc1)C(=O)N1CCC[C@H]1C(=O)N[C@@H](CO)C(=O)N[C@H](C(=O)N[C@@H](Cc1c[nH]c2ccccc12)C(=O)N[C@@H](Cc1ccc(O)cc1)C(=O)N[C@H](C(=O)O)C(C)C)[C@@H](C)O (H-S[Tic]ARNDQEGHILKMFPSTWYV-OH)
